The text below walks through data of publication PMC10921007 (Cancer Science, 2023).

The term Kd denotes a measure of binding affinity in units of concentration. Low values mean a tighter complex, high ones a looser complex.

The target in the assay is T1, SHCBP1 (Homo sapiens, UniProt Q8NEM2).
T1 sequence (Q8NEM2 2-672): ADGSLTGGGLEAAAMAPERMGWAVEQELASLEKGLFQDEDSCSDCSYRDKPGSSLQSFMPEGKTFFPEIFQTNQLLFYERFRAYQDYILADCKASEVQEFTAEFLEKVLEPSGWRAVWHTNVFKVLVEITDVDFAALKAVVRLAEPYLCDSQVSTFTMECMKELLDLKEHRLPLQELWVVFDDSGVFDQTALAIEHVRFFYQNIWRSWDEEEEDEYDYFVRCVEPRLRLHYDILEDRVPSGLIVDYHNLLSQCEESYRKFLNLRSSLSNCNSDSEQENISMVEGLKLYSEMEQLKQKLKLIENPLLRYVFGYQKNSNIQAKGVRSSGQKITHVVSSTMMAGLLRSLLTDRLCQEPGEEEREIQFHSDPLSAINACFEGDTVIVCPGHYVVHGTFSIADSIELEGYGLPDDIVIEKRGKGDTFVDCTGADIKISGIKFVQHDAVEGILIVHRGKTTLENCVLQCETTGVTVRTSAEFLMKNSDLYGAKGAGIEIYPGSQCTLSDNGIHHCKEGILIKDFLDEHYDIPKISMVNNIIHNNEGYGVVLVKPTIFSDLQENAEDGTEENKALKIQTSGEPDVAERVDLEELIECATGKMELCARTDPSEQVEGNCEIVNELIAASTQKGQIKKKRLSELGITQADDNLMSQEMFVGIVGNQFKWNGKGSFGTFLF
Put plainly: microscale thermophoresis. It counts as binding. In general terms: In MST a laser heats a spot of the sample, and binding alters the fluorescence response.

Compound `CN[C@@H](C)C(=O)N[C@H](C(=O)N1CCC[C@H]1C(=O)N[C@H]1c2ccccc2C[C@H]1OCC#CC#CCO[C@@H]1Cc2ccccc2[C@@H]1NC(=O)[C@@H]1CCCN1C(=O)[C@@H](NC(=O)[C@H](C)NC)C1CCCCC1)C1CCCCC1` [AZD5582] yielded a Kd of 1210 nM.
